Data on ten compounds can be found in EP4768499A1, “MACROCYCLIC PEPTIDE COMPOUND HAVING CELL MEMBRANE PERMEABILITY AND METABOLIC STABILITY, AND LIBRARY CONTAINING SAME” (Chugai Seiyaku Kabushiki Kaisha, priority 2023, dated 2025).

Starred links: 1 amine or outer side, 2 acyl side, 3 side chain; linkers in the order of their positions; H or OH if unused. Positions of bridges follow the written chain, without caps; N, C: chain ends. Non-standard residues stand in square brackets, D forms with d. Residues, ends and D or L forms follow the SMILES beside them. *: point of attachment. NMeF = CN[C@@H](Cc1ccccc1)C(=O)O; NMeGABA = CN(CCCC(=O)[*:2])[*:1]; NMeβAla = CN(CCC(=O)[*:2])[*:1]; NMeL = CN[C@@H](CC(C)C)C(=O)O; dNMeV = CN[C@@H](C(=O)O)C(C)C; NMeV = CN[C@H](C(=O)O)C(C)C; d(β3hA) = C[C@@H](N)CC(=O)O; NMeAbu = CC[C@H](NC)C(=O)O; NMeA = CN[C@@H](C)C(=O)O; Piperidide = C1CCN(*)CC1; dNMeA = CN[C@H](C)C(=O)O; Abu = CC[C@H](N)C(=O)O; NBuGly = CCCCNCC(=O)O; Sar = CNCC(=O)O; tBu = CC(C)(C)*

The nature of data set [1]: Metabolic stability test: liver microsomal stability assay. In kind it is in vitro ADME, mouse. The settings on record: mouse liver microsomes 0.5 mg protein/mL, compound 1 µM; for microsomal CLint at 1 µM: male, pH 7.4, presence of NADPH, read-out: Mouse Hepatic Microsome CLh,int NADPH(+); for Mouse Hepatic Microsome CLh,int NADPH(-): absence of NADPH. As for the experimental part:
Under the presence and absence of NADPH, a microsome solution prepared to a concentration of 0.5 mg protein/mL using 100 mM phosphate buffer (pH 7.4) with mouse liver microsomes (male, Corning Incorporated, USA) and the compound at a concentration of 1 µM were subjected to a metabolic reaction for 22 minutes, 44 minutes, or 66 minutes. Protein removal processing was performed over time using acetonitrile, and the remaining amount of unchanged compound was analyzed using LCMS to calculate the intrinsic hepatic clearance (CLh, int) (Table 6).
In general terms: Liver microsomes are vesicles of endoplasmic reticulum, rich in cytochrome P450 enzymes.

Data set [2] in a line: Membrane permeability test using Caco-2 cells with preincubation. It counts as in vitro ADME. To be noted: Caco-2; preincubation 20 to 24 hours; Apical FaSSIF/HBSS pH 6.0, Basal HBSS 4% BSA pH 7.4; 180 minutes; read-out: Caco2 Papp. The procedure:
(§1) The permeability coefficient (Caco-2 Papp (cm/sec)) is calculated using a numerical expression 1. [Expression 1] Papp = (1)/(C1 (0) × S) × (dQ)/(dt) [formula] dQ/dt represents the permeation rate of drug (the amount of drug appearing on the Basal side per unit time), S represents the total surface area of cells, and C1(0) represents the concentration of drug added on the Apical side.
(§2) Using a mixed medium of FaSSIF containing 1% DMSO and DMEM as the apical medium, and DMEM as the basal medium, Caco-2 cells and peptide compounds are preincubated for 20 to 24 hours under conditions of 5% CO2, 37°C, and 80 rpm. Afterward, the culture medium on the Apical side and the Basal side are aspirated and washed, the peptide compound was added to a FaSSIF/HBSS buffer solution containing 1% DMSO (1% DMSO) (pH 6.0) at the Apical side, a HBSS buffer solution containing 4% BSA (pH 7.4) was added to the Basal side, and measurement of membrane permeability is started. Each well is shaken under 5% CO2 at 37°C and 80 rpm, and at 180 minutes after the start of shaking, a sample on the Basal side is collected. The amount of peptide compounds in the sample was measured using LCMS, and the membrane permeability coefficient was calculated from the permeation amount (Table 7). When calculating the membrane permeability coefficient (Papp) from the permeation amount, the following expression can be used. Papp = (dQ)/(dt) × (1)/(C1 (0) × S) [formula]
(§3) dQ/dt represents the permeation rate of drug (the amount of drug appearing on the Basal side per unit time), C1(0) represents the concentration of drug added on the Apical side, and S represents the total surface area of cells.
A general note: Caco-2 cells form a polarised layer with tight junctions and transporters.

For data set [3], the system named is Caco-2 cells. The data set is described as above. In kind it is in vitro ADME. The settings on record: Caco-2 cells, preincubation 20 to 24 hours; apical FaSSIF/HBSS 1% DMSO pH 6.0, basal HBSS 4% BSA pH 7.4; basal sample at 180 minutes. The procedure: as §1, §2, §3

With `CC[C@@H]1NC(=O)[C@H](CC(C)C)N(C)C(=O)[C@H]([C@@H](C)CC)NC(=O)CN(C)C(=O)C[C@@H](C)NC(=O)[C@H](C(C)C)N(C)C(=O)[C@H](COC(C)(C)C)NC(=O)[C@H](CC(C)C)N(C)C(=O)[C@H](C)NC(=O)[C@H](Cc2ccccc2)N(C)C(=O)[C@H](CC(C)C)NC(=O)CN(C)C(=O)[C@H]([C@@H](C)O)NC(=O)[C@H](CC(C)C)N(C)C1=O` [pd010] (cyclo(A[NMeL]S(tBu)[NMeV][d(β3hA)][Sar]I[NMeL][Abu][NMeL]T[Sar]L[NMeF])), in data set [1], the microsomal CLint at 1 µM turned out to be 59.7 µL/min/mg and the “Mouse Hepatic Microsome CLh,int NADPH(-)” value came to 27.8 µL/min/mg Protein. Further, in data set [2], the Papp A→B was 0.72 ×10⁻⁶ cm/s. For the same compound, the “Caco2 Papp (10^-6 cm/sec)” value in data set [3] is reported as 0.72 10^-6 cm/sec.
On the same counts, the results for `CC[C@@H]1NC(=O)[C@H](CC(C)C)N(C)C(=O)[C@H]([C@@H](C)CC)NC(=O)CN(C)C(=O)C[C@@H](C)NC(=O)[C@H](C(C)C)N(C)C(=O)[C@H](COC(C)(C)C)NC(=O)[C@H](CC(C)C)N(C)C(=O)[C@H](Cc2ccccc2)N(C)C(=O)[C@H](C)NC(=O)[C@H](C(C)C)NC(=O)CN(C)C(=O)[C@H]([C@@H](C)O)NC(=O)[C@H](CC(C)C)N(C)C1=O` [pd011] (cyclo(A[NMeF][NMeL]S(tBu)[NMeV][d(β3hA)][Sar]I[NMeL][Abu][NMeL]T[Sar]V)) are 27.3 µL/min/mg, 22.9 µL/min/mg Protein, 0.11 ×10⁻⁶ cm/s and 0.11 10^-6 cm/sec.
On the same counts, the results for `CC[C@@H]1NC(=O)[C@H](Cc2ccccc2)N(C)C(=O)[C@H](COC(C)(C)C)NC(=O)[C@H](CC(C)C)N(C)C(=O)[C@H](C)N(C)C(=O)[C@@H]2CCCN2C(=O)[C@H]([C@@H](C)O)NC(=O)[C@H](CC(C)C)N(C)C(=O)[C@H]([C@@H](C)CC)NC(=O)[C@H](Cc2ccccc2)N(C)C(=O)[C@H](C(C)C)NC(=O)[C@@H](C)N(C)C(=O)C[C@@H](C)NC(=O)[C@H](C(C)C)N(C)C1=O` [pd012] (cyclo([Abu][NMeV][d(β3hA)][dNMeA]V[NMeF]I[NMeL]TP[NMeA][NMeL]S(tBu)[NMeF])) are 41.3 µL/min/mg, 20.1 µL/min/mg Protein, 4.3 ×10⁻⁶ cm/s and 4.30 10^-6 cm/sec.
For `CC[C@@H]1NC(=O)[C@H](Cc2ccccc2)N(C)C(=O)[C@H](C(C)C)NC(=O)[C@H](COC(C)(C)C)NC(=O)[C@H](C)N(C)C(=O)CN(C)C(=O)[C@H](CC(C)C)NC(=O)[C@@H]2CCCN2C(=O)[C@H](C(C)C)N(C)C(=O)[C@H](C)NC(=O)[C@H](CC)N(C)C(=O)[C@@H](C(C)C)NC(=O)C[C@@H](C(=O)N2CCCCC2)NC(=O)[C@H](C(C)C)N(C)C1=O` [pd013] ([dV][NMeAbu]A[NMeV]PL[Sar][NMeA]S(tBu)V[NMeF][Abu][NMeV]D-Piperidide; lactam N-14), in data set [1], the microsomal CLint at 1 µM was found to be 12.1 µL/min/mg and the “Mouse Hepatic Microsome CLh,int NADPH(-)” value is 6.1 µL/min/mg Protein. The Papp A→B in data set [2] worked out at 0.04 ×10⁻⁶ cm/s. Also, the “Caco2 Papp (10^-6 cm/sec)” value in data set [3] is 0.04 10^-6 cm/sec.
The matching figures for `CC(C)C[C@@H]1NC(=O)[C@@H]2CCCN2C(=O)[C@H](C(C)C)N(C)C(=O)[C@H](C)NC(=O)[C@H](CC(C)C)N(C)C(=O)[C@@H](C(C)C)NC(=O)C[C@@H](C(=O)N2CCCCC2)NC(=O)[C@H](C(C)C)N(C)C(=O)[C@H](C)NC(=O)[C@H](CC(C)C)N(C)C(=O)[C@H](C(C)C)NC(=O)[C@H](COC(C)(C)C)NC(=O)[C@H](CC(C)C)N(C)C(=O)[C@H](Cc2ccccc2)N(C)C1=O` [pd014] ([dV][NMeL]A[NMeV]PL[NMeF][NMeL]S(tBu)V[NMeL]A[NMeV]D-Piperidide; lactam N-14): 31.1 µL/min/mg, 33.0 µL/min/mg Protein, below 0.11 ×10⁻⁶ cm/s and <0.11 10^-6 cm/sec.
On the same counts, the results for `CC[C@H](C)[C@@H]1NC(=O)[C@H](C)NC(=O)[C@H](CC(C)C)N(C)C(=O)[C@H](COC(C)(C)C)NC(=O)[C@H](CC(C)C)N(C)C(=O)[C@@H]2CCCN2C(=O)[C@H](Cc2ccccc2)NC(=O)CCN(C)C(=O)[C@H](CC(C)C)N(C)C(=O)CCCN(C)C(=O)C[C@@H](C(=O)N2CCCCC2)NC(=O)[C@H](Cc2ccccc2)N(C)C(=O)[C@H](CC(C)C)NC(=O)[C@H](CC)N(C)C1=O` [pd017] ([NMeGABA][NMeL][NMeβAla]FP[NMeL]S(tBu)[NMeL]AI[NMeAbu]L[NMeF]D-Piperidide; lactam N-14) are 39.4 µL/min/mg, 40.1 µL/min/mg Protein, 0.09 ×10⁻⁶ cm/s and 0.09 10^-6 cm/sec.
The matching figures for `CCCCN1CC(=O)N(C)[C@@H](CC)C(=O)N[C@@H](CC(C)C)C(=O)N[C@H](C(=O)N2CCCCC2)CC(=O)N(C)[C@@H](C)C(=O)N[C@@H]([C@@H](C)CC)C(=O)N(C)[C@@H](Cc2ccccc2)C(=O)N(C)[C@@H](CC(C)C)C(=O)N[C@@H](C(C)C)C(=O)N(C)CC(=O)N[C@@H](CC(C)C)C(=O)N(C)[C@@H](Cc2ccccc2)C(=O)N(C)[C@@H](C)C(=O)N[C@@H](CC(C)C)C1=O` [pd018] ([NMeA]I[NMeF][NMeL]V[Sar]L[NMeF][NMeA]L[NBuGly][NMeAbu]LD-Piperidide; lactam N-14): 42.3 µL/min/mg, 34.1 µL/min/mg Protein, 0.11 ×10⁻⁶ cm/s and 0.11 10^-6 cm/sec.
With `CCCCN1CC(=O)N[C@@H](C)C(=O)N(C)[C@@H](Cc2ccccc2)C(=O)N[C@@H](CC(C)C)C(=O)N[C@@H](C)C(=O)N(C)[C@@H](C(C)C)C(=O)N[C@H](C(=O)N2CCCCC2)CC(=O)N[C@H](C(C)C)C(=O)N(C)[C@@H](Cc2ccccc2)C(=O)N[C@@H](CC)C(=O)N(C)[C@@H](C(C)C)C(=O)N(C)CCC(=O)N[C@@H]([C@@H](C)O)C(=O)N(C)[C@@H](CC(C)C)C1=O` [pd019] ([dV][NMeF][Abu][NMeV][NMeβAla]T[NMeL][NBuGly]A[NMeF]LA[NMeV]D-Piperidide; lactam N-14), in data set [1], the microsomal CLint at 1 µM was 34.7 µL/min/mg and the “Mouse Hepatic Microsome CLh,int NADPH(-)” value turned out to be 24.9 µL/min/mg Protein. Further, the Papp A→B in data set [2] was below 0.11 ×10⁻⁶ cm/s. Also, the “Caco2 Papp (10^-6 cm/sec)” value in data set [3] is recorded as <0.11 10^-6 cm/sec.
On the same counts, the results for `CC[C@H]1C(=O)N[C@@H](C(C)C)C(=O)N[C@H](C(=O)N2CCCCC2)CC(=O)N(C)[C@H](C(C)C)C(=O)N(C)[C@@H](Cc2ccccc2)C(=O)N[C@@H](CC(C)C)C(=O)N(C)CC(=O)N[C@@H](CC(C)C)C(=O)N[C@@H]([C@@H](C)O)C(=O)N(C)[C@@H](CC(C)C)C(=O)N(C)[C@@H](C(C)C)C(=O)N[C@@H](C)C(=O)N[C@@H](COC(C)(C)C)C(=O)N(C)[C@@H](Cc2ccccc2)C(=O)N1C` [pd020] ([dNMeV][NMeF]L[Sar]LT[NMeL][NMeV]AS(tBu)[NMeF][NMeAbu]VD-Piperidide; lactam N-14) are 33.3 µL/min/mg, 24.9 µL/min/mg Protein, below 0.11 ×10⁻⁶ cm/s and <0.11 10^-6 cm/sec.
On to `CC[C@@H]1NC(=O)[C@H](Cc2ccccc2)N(C)C(=O)[C@H]([C@@H](C)CC)NC(=O)[C@H](CC(C)C)N(C)C(=O)[C@H](CC(C)C)NC(=O)CCN(C)C(=O)C[C@@H](C(=O)N2CCCCC2)NC(=O)[C@H](C(C)C)NC(=O)[C@H](CC(C)C)N(C)C(=O)[C@H](C)N(C)C(=O)[C@H]([C@@H](C)O)NC(=O)[C@H](CC(C)C)N(C)C(=O)[C@H](COC(C)(C)C)NC(=O)[C@H](Cc2ccccc2)N(C)C1=O` [pd021] ([NMeβAla]L[NMeL]I[NMeF][Abu][NMeF]S(tBu)[NMeL]T[NMeA][NMeL]VD-Piperidide; lactam N-14), for which, in data set [1], the microsomal CLint at 1 µM amounted to 37.1 µL/min/mg and the “Mouse Hepatic Microsome CLh,int NADPH(-)” value is given as 36.3 µL/min/mg Protein. Besides, the Papp A→B in data set [2] is 0.15 ×10⁻⁶ cm/s. Further, the “Caco2 Papp (10^-6 cm/sec)” value in data set [3] is given as 0.15 10^-6 cm/sec.
